From ChEMBL document CHEMBL1158016, “Six new spongian diterpenes from the sponge spongia matamata” (J Nat Prod, 1999) come the findings set out here.

Values after ≈ are worked out from the molar mass of the structure shown.

For the first series, the system named is Artemia. The series can be described thus: (§1) Toxicity in brine shrimp. In kind it is organism-based. Particulars: in vivo.
Regarding `COC1O[C@H](OC)[C@]2(O)[C@]1(O)CC[C@@H]1[C@@]3(C)CCC[C@](C)(C(=O)O)[C@@H]3CC[C@]12C` (stereo partly specified), the Activity entry was “Non-toxic”. Still for that read-out and setting: in the case of `C[C@]12CCC[C@](C)(C(=O)O)[C@@H]1CC[C@@]1(C)C3=C(CC[C@H]21)C(=O)OC3` it was “Non-toxic”. Still for that read-out and setting: in the case of `CO[C@@H]1OC(=O)C2=C1CC[C@@H]1[C@@]3(C)CCC[C@](C)(C(=O)O)[C@@H]3CC[C@@]21C` it was “Non-toxic”. On the same count and under the same terms, in the case of `CO[C@H]1OC(=O)C2=C1[C@]1(C)CC[C@@H]3[C@](C)(CCC[C@]3(C)C(=O)O)[C@H]1CC2` it was “Non-toxic”. Take `C[C@]12CCC[C@](C)(C(=O)O)[C@@H]1CC[C@@]1(C)C3=C(CC[C@H]21)COC3=O`: the Activity result is reported as “Non-toxic”.

Test system in a further series: not listed separately
Described as §1. Particulars: artemia, in vivo. In kind it is organism-based.
A word on the LC50: it is the concentration that kills 50% of the test population. The low end stands for greater toxicity, the high end for lower toxicity. For `C[C@]12CCC[C@](C)(C(=O)O)[C@@H]1CC[C@@]1(C)c3cocc3CC[C@H]21`, the LC50 turned out to be 10 µg/mL (≈ 31.6 µM).
